Experimental findings from patent publication US20260035367A1 (Celgene Corporation, priority 2021, published 2026) are described below.

Read-outs that look alike come from different tables or passages of the source.

Assay [1] has as its target T1, Recombinant human PKC-theta (His-tagged 362-706) (Homo sapiens, UniProt Q04759).
T1 construct: Recombinant human PKC-theta (His-tagged 362-706); His
The experiment in a line: PKC-theta inhibition assay (HTRF KinEASE kit). Type of assay: biochemical. The conditions noted are these: ATP 6.5 μM, STK substrate 525 nM. The procedure:
PKC-theta and PKC-delta biochemical activities were measured using the PKC-theta HTRF KinEASEkit kit, according to manufacturer's instructions (Cisbio, catalogue number 61ST1PEJ). Briefly, the kinase buffer component of the kit was supplemented with 10 mM MgCl2, 1 mM DTT and 0.1% Tween 20. […] The streptavidin_XL665 and STK antibody-cryptate detection reagents were mixed according to the manufacturer's instructions. Test compounds were diluted in DMSO in a series of 10 semi-log step doses; 10 nL of each compound dose were dispensed in 384 well plates. […] The reaction was started by addition of the substrate and ATP and incubated at 25° C. for 30 minutes or 20 minutes for the PKC-theta and PKC-delta assays, respectively. The detection reagents were added, and the plate was incubated in the dark for 2 hours. […] The ratio of acceptor and donor emission signals was calculated for each well. Percent inhibition values were calculated from the HTRF ratios at different doses and fitted to a 4-parameter logistic curve to determine IC50 values (see Table 2).
For orientation: Time-resolved FRET reads energy transfer from a long-lived donor to a nearby acceptor.

Assay [2] deals with T2, Recombinant human PKC-delta (His-tagged 345-676) (Homo sapiens, UniProt Q05655).
T2 construct: PKC-delta (His-tagged 345-676); His
T2 sequence (Q05655 345-676): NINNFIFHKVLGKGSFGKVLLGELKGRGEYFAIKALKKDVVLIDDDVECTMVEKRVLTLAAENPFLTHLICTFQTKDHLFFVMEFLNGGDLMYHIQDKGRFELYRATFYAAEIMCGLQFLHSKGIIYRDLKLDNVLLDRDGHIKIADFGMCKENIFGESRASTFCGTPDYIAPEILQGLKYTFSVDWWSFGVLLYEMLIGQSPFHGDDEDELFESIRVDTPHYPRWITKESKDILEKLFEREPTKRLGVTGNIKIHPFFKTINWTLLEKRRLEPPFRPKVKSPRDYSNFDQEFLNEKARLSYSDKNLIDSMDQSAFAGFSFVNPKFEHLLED
The experiment in a line: PKC-delta inhibition assay (HTRF KinEASE kit). Type of assay: biochemical. To be noted: ratio, PKC-theta vs PKC-delta HTRF; for PKC-theta/PKC-delta selectivity (binned): binned A to G.

Assay [3] has as its system IL-2 secretion by human effector memory T cells (TEM). In words: Effector memory T cells IL-2 release assay (CD3/CD28 stimulation, HTRF IL-2 detection). Type of assay: cell-based. To be noted: 24 h; for IC50: Homo sapiens, T-cell. The procedure:
Test compound-mediated inhibition of NFκB signalling in T cells was assessed by quantification of the IL-2 secretion by human effector memory T cells (TEM) upon treatment and stimulation. Human TEM cells were isolated from buffy coats of healthy donors obtained from the French blood bank.
Finally, 10 doses of test compound, originally prepared in DMSO by serial semi-log step dilution, were also added to cells in triplicate wells. Final DMSO concentration in wells was 0.1% in a total volume of 100 μL complete medium. Plates were incubated for 24 h at 37° C. in 5% CO2 atmosphere. After incubation, cell suspensions were centrifuged at 400×g and culture supernatants were recovered and stored at −80° C. […] IL-2 levels were determined in cell supernatants using an HTRF human IL-2 detection kit (Cisbio, cat #62HIL02PEH).

Setting [4] is: binned A to H, read-out: PKC-theta HTRF pIC50 (binned) (converted).
Setting [5] is: read-out: PKC-theta HTRF pIC50 (converted).
Where [6] appears, read: binned A to G, read-out: PKC-theta IL2 pIC50 (binned) (converted).
The mark [7] stands for this setting: read-out: PKC-theta IL2 pIC50 (converted).

T1 sequence (Q04759 362-706): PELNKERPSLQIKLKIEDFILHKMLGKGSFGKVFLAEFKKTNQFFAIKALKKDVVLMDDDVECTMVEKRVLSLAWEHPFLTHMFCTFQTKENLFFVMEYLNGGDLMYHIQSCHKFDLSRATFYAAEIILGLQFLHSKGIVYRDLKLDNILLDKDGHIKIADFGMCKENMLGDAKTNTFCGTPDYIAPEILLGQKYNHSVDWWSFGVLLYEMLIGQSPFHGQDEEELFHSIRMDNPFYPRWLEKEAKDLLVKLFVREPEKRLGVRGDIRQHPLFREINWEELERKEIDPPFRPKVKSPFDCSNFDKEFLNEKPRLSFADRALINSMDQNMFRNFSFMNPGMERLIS

Take `C[C@@H]1CN(c2cc(C(F)(F)F)cc(-c3ccnc4c3[C@](C)(O)C(=O)N4)n2)CCN1` (single isomer, unassigned) [Example 108]: the IC50 in assay [1] (setting [4]) was 10 to 31.6 nM; in assay [1] (setting [5]), 12.6 nM; in assay [3] (setting [6]), 100 to 316 nM; in assay [3] (setting [7]), 126 nM. In addition, the PKC-theta/PKC-delta selectivity in assay [2] is reported as 15. Also, the “PKC-theta/PKC-delta selectivity (binned)” value in assay [2] was “D (a ratio of between 10 and 20)”.

Take `C[C@@]1(O)C(=O)Nc2nccc(-c3cc(C(F)(F)F)cc(N4CCNC(CF)C4)n3)c21` (single isomer, unassigned) [Example 109]: the IC50 in assay [1] (setting [4]) was 3.16 to 10 nM; in assay [1] (setting [5]) it was 3.98 nM; in assay [3] (setting [6]), 316 to 1000 nM; in assay [3] (setting [7]) it was 794 nM. In addition, the PKC-theta/PKC-delta selectivity in assay [2] was found to be 29. Moreover, in assay [2], the “PKC-theta/PKC-delta selectivity (binned)” value was “C (a ratio of between 20 and 30)”.

For `C[C@H]1CN(c2cc(Cl)cc(-c3ccnc4c3[C@](C)(O)C(=O)N4)n2)CCN1` (single isomer, unassigned) [Example 110], the IC50 in assay [1] (setting [4]) was 0.316 to 1 nM; in assay [1] (setting [5]), 1 nM; in assay [3] (setting [6]), 10 to 31.6 nM; in assay [3] (setting [7]), 25.1 nM. In addition, the PKC-theta/PKC-delta selectivity in assay [2] was 16. For the same molecule, the “PKC-theta/PKC-delta selectivity (binned)” value in assay [2] was “D (a ratio of between 10 and 20)”.

Turning to `C[C@@H]1CN(c2cc(C(F)(F)F)cc(-c3ccnc4c3[C@](C)(O)C(=O)N4)n2)[C@@H](C)CN1` (single isomer, unassigned) [Example 118], the IC50 in assay [1] (setting [4]) was 10 to 31.6 nM; in assay [1] (setting [5]), 25.1 nM; in assay [3] (setting [6]), 100 to 316 nM; in assay [3] (setting [7]), 251 nM. In addition, in assay [2], the PKC-theta/PKC-delta selectivity is listed as 12. Moreover, in assay [2], the “PKC-theta/PKC-delta selectivity (binned)” value is “D (a ratio of between 10 and 20)”.

For `C[C@@H]1CN(c2cc(C(F)(F)F)cc(-c3ccnc4c3[C@](C)(O)C(=O)N4)n2)[C@H](C)CN1` (single isomer, unassigned) [Example 119], the IC50 in assay [1] (setting [4]) is 3.16 to 10 nM; in assay [1] (setting [5]), 3.98 nM; in assay [3] (setting [6]) it was 100 to 316 nM; in assay [3] (setting [7]), 200 nM. The PKC-theta/PKC-delta selectivity in assay [2] came to 12. Further, the “PKC-theta/PKC-delta selectivity (binned)” value in assay [2] is “D (a ratio of between 10 and 20)”.

In the case of `C[C@@]1(O)C(=O)Nc2nccc(-c3cc(Cl)cc(N4CCNC(CC(F)(F)F)C4)n3)c21` (single isomer, unassigned) [Example 122], the IC50 in assay [1] (setting [4]) is 3.16 to 10 nM; in assay [1] (setting [5]), 3.98 nM; in assay [3] (setting [6]) it was 100 to 316 nM; in assay [3] (setting [7]) it was 251 nM. Also, in assay [2], the PKC-theta/PKC-delta selectivity is given as 16. Also, in assay [2], the “PKC-theta/PKC-delta selectivity (binned)” value was “D (a ratio of between 10 and 20)”.

As for `C[C@@]1(O)C(=O)Nc2nccc(-c3cc(C(F)(F)F)cc(N4CCNC(C(F)F)C4)n3)c21` (single isomer, unassigned) [Example 123], the IC50 in assay [1] (setting [4]) was 10 to 31.6 nM; in assay [1] (setting [5]), 20 nM; in assay [3] (setting [6]) it was over 1000 nM; in assay [3] (setting [7]), 1580 nM. Besides, the PKC-theta/PKC-delta selectivity in assay [2] was 25. In addition, the “PKC-theta/PKC-delta selectivity (binned)” value in assay [2] is “C (a ratio of between 20 and 30)”.

As to `CC[C@H]1CN(c2ccc(Cl)c(-c3ccnc4c3[C@](C)(O)C(=O)N4)n2)CCN1` (single isomer, unassigned) [Example 128], the IC50 in assay [1] (setting [4]) was 10 to 31.6 nM; in assay [1] (setting [5]), 25.1 nM; in assay [3] (setting [6]), 100 to 316 nM; in assay [3] (setting [7]), 316 nM. In addition, the PKC-theta/PKC-delta selectivity in assay [2] was determined as 5. In addition, the “PKC-theta/PKC-delta selectivity (binned)” value in assay [2] was “F (a ratio of between 1 and 5)”.

In the case of `CC[C@@H]1CNCCN1c1cc(C(F)(F)F)cc(-c2ccnc3c2[C@](C)(O)C(=O)N3)n1` (single isomer, unassigned) [Example 129], the IC50 was 0.316 to 1 nM in assay [1] (setting [4]), 0.501 nM in assay [1] (setting [5]), 3.16 to 10 nM in assay [3] (setting [6]) and 3.98 nM in assay [3] (setting [7]). For the same molecule, the PKC-theta/PKC-delta selectivity in assay [2] came to 3. Also, the “PKC-theta/PKC-delta selectivity (binned)” value in assay [2] is “F (a ratio of between 1 and 5)”.

On to `CC1(C)CN(c2cc(Cl)cc(-c3ccnc4c3[C@](C)(O)C(=O)N4)n2)CCN1` (single isomer, unassigned) [Example 133], for which the IC50 in assay [1] (setting [4]) was 1 to 3.16 nM; in assay [1] (setting [5]) it was 2.51 nM; in assay [3] (setting [6]), 31.6 to 100 nM; in assay [3] (setting [7]) it was 50.1 nM. Further, in assay [2], the PKC-theta/PKC-delta selectivity was 10. The “PKC-theta/PKC-delta selectivity (binned)” value in assay [2] was “D (a ratio of between 10 and 20)”.

With `CC1(C)CN(c2cc(C(F)(F)F)cc(-c3ccnc4c3[C@](C)(O)C(=O)N4)n2)CCN1` (single isomer, unassigned) [Example 134], the IC50 was 3.16 to 10 nM in assay [1] (setting [4]), 7.94 nM in assay [1] (setting [5]), 100 to 316 nM in assay [3] (setting [6]) and 100 nM in assay [3] (setting [7]). In assay [2], the PKC-theta/PKC-delta selectivity amounted to 10. In addition, the “PKC-theta/PKC-delta selectivity (binned)” value in assay [2] is “D (a ratio of between 10 and 20)”.

For `C[C@@]1(O)C(=O)Nc2nccc(-c3cc(C(F)(F)F)cc(N4C[C@H]5CC[C@@H](C4)N5)n3)c21` (single isomer, unassigned) [Example 136], the IC50 in assay [1] (setting [4]) is 10 to 31.6 nM; in assay [1] (setting [5]), 25.1 nM; in assay [3] (setting [6]) it was 316 to 1000 nM; in assay [3] (setting [7]), 501 nM. Further, the PKC-theta/PKC-delta selectivity in assay [2] is recorded as 11. The “PKC-theta/PKC-delta selectivity (binned)” value in assay [2] is “D (a ratio of between 10 and 20)”.

With `C[C@@]1(O)C(=O)Nc2nccc(-c3cc(C(F)(F)F)cc(N4CC5CCC4CN5)n3)c21` (single isomer, unassigned) [Example 138], the IC50 in assay [1] (setting [4]) was 10 to 31.6 nM; in assay [1] (setting [5]), 15.8 nM; in assay [3] (setting [6]), 316 to 1000 nM; in assay [3] (setting [7]), 631 nM. Further, the PKC-theta/PKC-delta selectivity in assay [2] came out at 16. The “PKC-theta/PKC-delta selectivity (binned)” value in assay [2] is “D (a ratio of between 10 and 20)”.

Take `CC[C@@H]1CNCCN1c1cc(Cl)cc(-c2ccnc3c2[C@](C)(O)C(=O)N3)n1` (single isomer, unassigned) [Example 139]: the IC50 in assay [1] (setting [4]) is 0.316 to 1 nM; in assay [1] (setting [5]) it was 0.794 nM; in assay [3] (setting [6]), 1 to 3.16 nM; in assay [3] (setting [7]) it was 2 nM. Also, the PKC-theta/PKC-delta selectivity in assay [2] stood at 1. For the same molecule, the “PKC-theta/PKC-delta selectivity (binned)” value in assay [2] was “F (a ratio of between 1 and 5)”.

Turning to `C[C@@]1(O)C(=O)Nc2nccc(-c3cc(C(F)(F)F)cc(N4CC5CC(C4)N5)n3)c21` (single isomer, unassigned) [Example 149], the IC50 in assay [1] (setting [4]) is 10 to 31.6 nM; in assay [1] (setting [5]), 25.1 nM; in assay [3] (setting [6]) it was 316 to 1000 nM; in assay [3] (setting [7]), 398 nM. Also, the PKC-theta/PKC-delta selectivity in assay [2] stood at 15. Further, the “PKC-theta/PKC-delta selectivity (binned)” value in assay [2] is “D (a ratio of between 10 and 20)”.

Consider `CC[C@H]1CN(c2cc(Cl)cc(-c3ccnc4c3[C@@](C)(OC)C(=O)N4)n2)CCN1` (single isomer, unassigned) [Example 151], for which the results for the IC50 in assay [1] (setting [4]), in assay [1] (setting [5]) and in assay [3] (setting [7]) were 10 to 31.6 nM, 12.6 nM and 126 nM, respectively. Besides, the PKC-theta/PKC-delta selectivity in assay [2] was found to be 15. For the same molecule, the “PKC-theta/PKC-delta selectivity (binned)” value in assay [2] was “D (a ratio of between 10 and 20)”. In assay [3] (binned A to G), the “PKC-theta IL2 pIC50 (binned)” value is “E (a measured pIC50 of between 6.5 and 7.0)”.

In the case of `CC[C@H]1CN(c2cc(Cl)cc(-c3ccnc4c3[C@@](C)(OC)C(=O)N4)n2)CCN1` (single isomer, unassigned) [Example 152], the IC50 in assay [1] (setting [4]) was 3.16 to 10 nM. Further, the IC50 in assay [1] (setting [5]) is 6.31 nM. In assay [2], the PKC-theta/PKC-delta selectivity is listed as 11; the “PKC-theta/PKC-delta selectivity (binned)” value was “D (a ratio of between 10 and 20)”. Besides, the “PKC-theta IL2 pIC50” value in assay [3] was determined as 7.1. In assay [3] (binned A to G), the “PKC-theta IL2 pIC50 (binned)” value is “D (a measured pIC50 of between 7.0 and 7.5)”.

For the molecule `CC[C@]1(C)C(=O)Nc2nccc(-c3cc(C(F)(F)F)cc(N4CCN[C@@H](C)C4)n3)c21` (single isomer, unassigned) [Example 153], the IC50 in assay [1] (setting [4]) was 1 to 3.16 nM; in assay [1] (setting [5]), 3.16 nM; in assay [3] (setting [6]) it was 10 to 31.6 nM; in assay [3] (setting [7]), 31.6 nM. For the same molecule, the PKC-theta/PKC-delta selectivity in assay [2] stood at 13. The “PKC-theta/PKC-delta selectivity (binned)” value in assay [2] was “D (a ratio of between 10 and 20)”.
